According to US20120149708A1, “MODULATORS OF VIRAL TRANSCRIPTION, AND METHODS AND COMPOSITIONS THEREWITH” (George Mason University, priority 2010, published 2012):

Legend:
[1] = system: 3′TAR and 5′TAR microRNA; assay: Poly-A RT-PCR of TAR microRNA in ACH2 cells; type: cell-based, HIV-1; conditions: CR8#13 100 nm, 48 hrs
Experimental: RNA was extracted 48 hrs-post drug treatment. 500 ng of RNA from the microRNA-enriched fraction was used to generate cDNA using the Quantimir kit (SBI). RT reactions are performed followed by PCR in which a universal reverse primer is provided by the manufacturer. Specific microRNA forward primers are identical in sequence to the microRNA of interest. PCR products corresponding to the amplified microRNAs were resolved in a 3.5% (w/v) agarose gel. The PCR products are at around 67 bp as compared with the Fermentas 1 kb DNA Plus Ladder. Increased amounts of 3′ and 5′ TAR microRNA were observed post drug treatment.
For poly-A RT-PCR detection of microRNAs, 500 ng of RNA from the microRNA-enriched fraction was used to generate cDNA using the Quantimir kit (SBI) according to the manufacturer's protocol. Briefly, small RNA species are poly-adenylated and then reverse transcription reactions are performed with a company-provided RT primer. For PCR, a universal reverse primer is provided by the manufacturer. Specific microRNA forward primers are identical in sequence to the microRNA of interest. PCR products corresponding to the amplified microRNAs were separated in a 3.5% (w/v) agarose gel and quantified using the Kodak 1D software. […]

[2] = system: integrated HIV-1-Luc; assay: Luciferase assay in TSA treated TZM-bl cells; type: cell-based; conditions: TSA and CR8#13 versus TSA alone
Experimental: Luciferase activity increased with TSA treatment and then decreased post-CR8#13 treatment.
To observe the effect of drug on heterochrmatin formation, the present inventor used a ChIP assay. Briefly, TZM-bl cells were treated with TSA (FIGS. 16 and 17), and then treated with CR8#13.

[3] = system: CIITA, IL-8, CAD, MCL-1, Cyclin D1, and PBX-1; type: cell-based
Experimental: 293T cells were treated with three different concentrations of CR8#13 (20 nm, 50 nm, and 200 nm). Cells were processed 48 hrs-post treatment for RT-PCR. Effector cdk9 genes such as CIITA, IL-8, CAD, MCL-1, Cyclin D1, and PBX-1 were used in the RT-PCR.
For mRNA analysis of cdk9 related genes following drug treatments, total RNA was isolated from cells using Trizol (Invitrogen) according to the manufacturer's protocol. A total of 1 μg of RNA from the RNA fraction was treated with 0.25mg/ml DNase I for 60 min, followed by heat inactivation at 65° C. for 15 min. A total of 1 μg of total RNA was used to generate cDNA with the iScript cDNA Synthesis kit (Bio-Rad) using oligo-dT reverse primers.
A determination whether inhibition cdk9 by compounds of the present invention altered the responsiveness of cdk9 dependent cellular genes, was made by the present inventor by testing the effect of CR8#13 (BJFP1154), of viral transcriptional activity utilizing a known set of cellular and viral genes.

[4] = system: HIV-1 LTR-CAT reporter; assay: CAT assay of Tat-mediated transactivation in HCT116 WT and Dicer-/- cells; type: cell-based; conditions: HCT116 WT (Dicer) versus Dicer-/-; 48 hrs; Flavopiridol, CR8#13, F07#13 100 nm, 9AA 1000 nm
Experimental: Six hours later, the transfected cells were treated with DMSO, Flavopirodol (100 nm), CR8#13 (100 nm), F07#13 (100 nm), and 9AA (1000 nm). Treated cells were incubated in complete DMEM for 48 hrs at 37° C. Cells were harvested and cell extracts were used for CAT analysis. One tenth the amount of HCT116 Dicer−/−extract compared to HCT116 WT was used for CAT analysis. […] The corresponding bar graphs in A and B show values that represent the percentage of conversion of the [14C] chloramphenicol substrate in the CAT assay.
Various cells lines were transfected with the HIV-1 LTRCAT plasmid and pc-Tat to initiate the LTR transcription, and subsequently subjected to various drug treatments. After 48 hrs, cells were lysed and CAT assays were performed as previously described (Guendel et al, 2009; Van Duyne et al, 2008; Easley et al, 2010).
To evaluate the role on microRNA machinery in inhibition of viral transcription activity, HCT116 colon carcinoma cell lines that either contained a WT Dicer (HCT116 WT) or lacked the Dicer protein (HCT116 Dicer-−/−) were first transfected with the HIV-1 LTR-CAT reporter construct. The HIV-1 LTR transcription was activated with pc-Tat and following incubation for 6 hours was treated with DMSO (negative control), Flavopiridol (positive control), CR8#13, F07#13, or 9AA.
Cells were harvested 48 hrs-post treatment and processed for CAT assays (FIGS. 3A and B). […] Based on this observation the inventors hypothesize that the microRNA machinery, Dicer and Drosha, plays an inhibitory role in HIV-1 transcription.

[5] = system: infected ACH2, J1.1, OM10.1, U1 cells; assay: MTT assay, infected cells; type: cell-based; conditions: 50 nm and 10 μM
Experimental: FIGS. 1 and 2 show screening results of CR8 derivatives on Tat-dependent transcription HIV-1 LTR. […] TZM-bl cells were transfected with 1 ug of Tat and treated the next day with DMSO, or the indicated CR8 derivative compounds at 50 nm. 48 hrs-post drug treatment, luciferase activity of the firefly luciferase was measured with the BrightGlo Luciferase Assay and luminescence was read from a 96 well plate on an EG&G Berthold luminometer. Assays were performed in triplicate, average and standard deviations are shown.
Quantitative MTT assays were performed (FIG. 2), to further validate the cell growth inhibitory activity of certain Formula I compounds. In this study, cultured, infected ACH2, J1.1, OM10.1, U1 and uninfected CEM, Jurkat T-cells, and U937 cells were brought in contact with Formula I compounds CR8, MRT-033, and BJFP1154 (CR8#13). Cell growth inhibition study was performed at two different concentrations of the inventive compounds, a low concentration of 50 nm, and high concentration of 10 μM.

[6] = system: HIV-1; assay: Viral inhibition (HIV-1); type: cell-based; conditions: versus Cyc202

| Structure (SMILES) | 5′TAR microRNA levels [1] | Luciferase activity [2] | transcription of cdk9 responsive genes [3] | inhibition of viral transcription (CAT) [4] | cell killing of infected cells (MTT) [5] | potency relative to Cyc202 (viral inhibition) [6] |
| --- | --- | --- | --- | --- | --- | --- |
| CC(C)c1cnn2c(NCc3ccc(-c4ccccn4)cc3)nc(NC[C@H](O)CO)nc12.O=C(O)/C=C/C(=O)O [BJFP1154] | increase in the 5′TAR microRNA levels | decrease Luciferase activity | did not inhibit transcription of genes that are cdk9 responsive | inhibited viral transcription significantly better in cells that contained Dicer | – | – |
| CC[C@@H](CO)Nc1nc(NCc2ccc(-c3ccccn3)cc2)c2ncn(C(C)C)c2n1 [CR8] | – | – | – | – | significant cell killing of infected cells over uninfected cells | roughly 25 times |
